From patent publication US10913727B2, “Modulators of the integrated stress pathway” (Calico Life Sciences LLC, priority 2016, dated 2021)

Test system: HEK293T cells carrying the ATF4 luciferase reporter
Test: ATF4-Luc assay, in vitro model of Vanishing Cell White Matter Disease (VWMD)
Assay type: cell-based
Conditions: Homo sapiens, HEK-293T, 1 μg/mL tunicamycin, 7 hours, One Glo luminescence
Method in brief: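 Reporter cells were stably generated by retroviral transduction and puromycin selection, then seeded at 30,000 cells/well. Next day, cells received 1 μg/mL tunicamycin with 200 nM test compound for 7 h, and luciferase luminescence was read with a one-step reagent. Values reported as EC50.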

SMILES | EC50
CCc1ccnc(C(=O)NC23CC(NC(=O)COc4ccc(Cl)c(Cl)c4)(C2)C3)c1 [Compound 696, N-{3-[2-(3,4-dichlorophenoxy)acetamido]bicyclo[1.1.1]pentan-1-yl}-4-ethylpyridine-2-carboxamide] | 50 to 250 nM
COc1ncc(F)cc1C(=O)NC12CC(NC(=O)COc3ccc(Cl)c(F)c3)(C1)C2 [Compound 863, N-{3-[2-(4-chloro-3-fluorophenoxy)acetamido]bicyclo[1.1.1]pentan-1-yl}-5-fluoro-2-methoxypyridine-3-carboxamide] | > 2000 nM
CN(C)Cc1cccc(C(=O)NC23CC(NC(=O)COc4ccc(Cl)c(F)c4)(C2)C3)c1 [Compound 553, N-{3-[2-(4-chloro-3-fluorophenoxy)acetamido]bicyclo[1.1.1]pentan-1-yl}-3-[(dimethylamino)methyl]benzamide] | > 2000 nM
O=C(COc1ccc(Cl)c(F)c1)NC12CC(NC(=O)c3ccc(C(F)F)cc3)(C1)C2 [Compound 191, N-{3-[2-(4-chloro-3-fluorophenoxy)acetamido]bicyclo[1.1.1]pentan-1-yl}-4-(difluoromethyl)benzamide] | 50 to 250 nM
Cc1oc(C2CC2)cc1C(=O)NC12CC(NC(=O)COc3ccc(Cl)c(F)c3)(C1)C2 [Compound 881, N-{3-[2-(4-chloro-3-fluorophenoxy)acetamido]bicyclo[1.1.1]pentan-1-yl}-5-cyclopropyl-2-methylfuran-3-carboxamide] | > 2000 nM
O=C(COc1ccc2c(c1)OC(F)(F)O2)NC12CC(NC(=O)c3ccc(OC(F)F)nc3)(C1)C2 [Compound 458, N-(3-{2-[(2,2-difluoro-2H-1,3-benzodioxol-5-yl)oxy]acetamido}bicyclo[1.1.1]pentan-1-yl)-6-(difluoromethoxy)pyridine-3-carboxamide] | 50 to 250 nM
CSc1sc(C(=O)NC23CC(NC(=O)COc4ccc(Cl)c(F)c4)(C2)C3)cc1C#N [Compound 897, N-{3-[2-(4-chloro-3-fluorophenoxy)acetamido]bicyclo[1.1.1]pentan-1-yl}-4-cyano-5-(methylsulfanyl)thiophene-2-carboxamide] | > 2000 nM
O=C(COc1ccc(Cl)c(F)c1)NC12CC(NC(=O)c3cncc(F)c3)(C1)C2 [Compound 792, N-{3-[2-(4-chloro-3-fluorophenoxy)acetamido]bicyclo[1.1.1]pentan-1-yl}-5-fluoropyridine-3-carboxamide] | 250 to 1000 nM
CC(C)c1nnsc1C(=O)NC12CC(NC(=O)COc3ccc(Cl)c(F)c3)(C1)C2 [Compound 893, N-{3-[2-(4-chloro-3-fluorophenoxy)acetamido]bicyclo[1.1.1]pentan-1-yl}-4-(propan-2-yl)-1,2,3-thiadiazole-5-carboxamide] | 1000 to 2000 nM
O=C(COc1ccc(Cl)c(F)c1)NC12CCC(NC(=O)c3cccc(C(F)(F)F)n3)(CC1)CC2O (stereo not shown) [Compound 941, N-{4-[2-(4-chloro-3-fluorophenoxy)acetamido]-3-hydroxybicyclo[2.2.2]octan-1-yl}-6-(trifluoromethyl)pyridine-2-carboxamide] | < 50 nM
Cc1cc(C(=O)NC23CCC(NC(=O)COc4ccc(Cl)c(F)c4)(CC2)[C@@H](O)C3)on1 (single isomer, unassigned) [Compound 358] | < 50 nM
O=C(COc1ccc(Cl)c(F)c1)NC12CCC(NC(=O)c3cc4ccccn4n3)(CC1)CC2O (stereo not shown) [Compound 594, N-{4-[2-(4-chloro-3-fluorophenoxy)acetamido]-3-hydroxybicyclo[2.2.2]octan-1-yl}pyrazolo[1,5-a]pyridine-2-carboxamide] | 50 to 250 nM
O=C(COc1ccc(Cl)c(F)c1)NC12CC(NC(=O)c3ccc4ccccc4n3)(C1)C2 [Compound 586, N-{3-[2-(4-chloro-3-fluorophenoxy)acetamido]bicyclo[1.1.1]pentan-1-yl}quinoline-2-carboxamide] | < 50 nM
Cc1ccc(C(=O)NC23CC(NC(=O)COc4ccc(Cl)c(F)c4)(C2)C3)o1 [Compound 555, N-{3-[2-(4-chloro-3-fluorophenoxy)acetamido]bicyclo[1.1.1]pentan-1-yl}-5-methylfuran-2-carboxamide] | 50 to 250 nM
Cc1cc(C(=O)NC23CC(NC(=O)COc4ccc(Cl)c(F)c4)(C2)C3)c(C)o1 [Compound 537, N-{3-[2-(4-chloro-3-fluorophenoxy)acetamido]bicyclo[1.1.1]pentan-1-yl}-2,5-dimethylfuran-3-carboxamide] | 250 to 1000 nM
CCOc1ccc(C(=O)NC23CC(NC(=O)COc4ccc(Cl)c(F)c4)(C2)C3)cc1 [Compound 351, N-{3-[2-(4-chloro-3-fluorophenoxy)acetamido]bicyclo[1.1.1]pentan-1-yl}-4-ethoxybenzamide] | 50 to 250 nM
O=C(COc1ccc(Cl)c(F)c1)NC12CCC(NC(=O)c3cc(C(F)F)no3)(CC1)C[C@@H]2O [Compound 671, N-{(3S)-4-[2-(4-chloro-3-fluorophenoxy)acetamido]-3-hydroxybicyclo[2.2.2]octan-1-yl}-3-(difluoromethyl)-1,2-oxazole-5-carboxamide] | < 50 nM
CC(=O)Nc1cncc(C(=O)NC23CC(NC(=O)COc4ccc(Cl)c(F)c4)(C2)C3)c1 [Compound 822, 5-acetamido-N-{3-[2-(4-chloro-3-fluorophenoxy)acetamido]bicyclo[1.1.1]pentan-1-yl}pyridine-3-carboxamide] | > 2000 nM
O=C(COc1ccc(Cl)c(F)c1)NC12CCC(NC(=O)c3ccncn3)(CC1)C(O)C2 (stereo not shown) [Compound 226, N-{4-[2-(4-chloro-3-fluorophenoxy)acetamido]-2-hydroxybicyclo[2.2.2]octan-1-yl}pyrimidine-4-carboxamide] | 250 to 1000 nM
Cc1cc2c(NC34CC(NC(=O)COc5cccc(F)c5)(C3)C4)nccn2n1 [Compound 640, 2-(3-fluorophenoxy)-N-{3-[(2-methylpyrazolo[1,5-a]pyrazin-4-yl)amino]bicyclo[1.1.1]pentan-1-yl}acetamide] | 250 to 1000 nM
Cc1c(Cl)c(C(=O)NC23CC(NC(=O)COc4ccc(Cl)c(F)c4)(C2)C3)nn1C [Compound 780, 4-chloro-N-{3-[2-(4-chloro-3-fluorophenoxy)acetamido]bicyclo[1.1.1]pentan-1-yl}-1,5-dimethyl-1H-pyrazole-3-carboxamide] | > 2000 nM
Cn1ccc(C(=O)NC23CC(NC(=O)COc4ccc(Cl)c(F)c4)(C2)C3)n1 [Compound 389, N-{3-[2-(4-chloro-3-fluorophenoxy)acetamido]bicyclo[1.1.1]pentan-1-yl}-1-methyl-1H-pyrazole-3-carboxamide] | 250 to 1000 nM
O=C(COc1ccc(Cl)c(F)c1)NC12CCC(NC(=O)c3cccc[n+]3[O-])(CC1)CC2O (stereo not shown) [Compound 944, N-{4-[2-(4-chloro-3-fluorophenoxy)acetamido]-3-hydroxybicyclo[2.2.2]octan-1-yl}-1-oxo-1λ^5-pyridine-2-carboxamide] | > 2000 nM
O=C(COc1ccc(Cl)c(F)c1)NC12CCC(NC(=O)c3ccc(OC(F)(F)F)cn3)(CC1)C[C@@H]2O [Compound 682, N-{(3S)-4-[2-(4-chloro-3-fluorophenoxy)acetamido]-3-hydroxybicyclo[2.2.2]octan-1-yl}-5-(trifluoromethoxy)pyridine-2-carboxamide] | < 50 nM
O=C(COc1ccc(Cl)c(F)c1)NC12CCC(NC(=O)c3cc(F)ccn3)(CC1)CC2O (stereo not shown) [Compound 936, N-{4-[2-(4-chloro-3-fluorophenoxy)acetamido]-3-hydroxybicyclo[2.2.2]octan-1-yl}-4-fluoropyridine-2-carboxamide] | 50 to 250 nM
